From US8871753B2, “Macrocyclic compounds and their use as kinase inhibitors” (Incyte Corporation, priority 2008, dated 2014)
pIC50: −log10 of the molar value. Structures can show the parent of a compound that is named as a salt. Where two headings read alike, the source gives them in different places.

Experiments:
Format in all cases: biochemical
[1] = molecular target: T1, human JAK3 (a.a. 781-1124) (Homo sapiens, UniProt P52333); test: In vitro JAK kinase assay (HTRF, phosphorylation of a biotinylated peptide), JAK3
T1 construct: JAK3 (a.a. 781-1124); His tag (N); made in house; host or cells: insect cells (baculovirus)
Procedure, shortened: (§1)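 Phosphorylation of a biotinylated peptide by the JAK kinase domain, detected by HTRF with Eu-Py20 and SA-APC. ATP was 90 μM for JAK1, 30 μM for JAK2 and 3 μM for JAK3. Reactions ran 1 h at room temperature and were stopped with EDTA, followed by 40 min antibody binding.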

[2] = molecular target: T2, Recombinant Human Anaplastic Lymphoma Kinase (Homo sapiens, UniProt Q9UM73); test: ALK HTRF kinase assay
T2 construct: purchased Invitrogen, Carlsbad, Calif
Procedure, shortened: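 Recombinant human ALK with biotinylated peptide substrate; phosphorylation detected by HTRF using Eu-labelled anti-phosphotyrosine antibody and streptavidin-allophycocyanin. IC50 from a sigmoidal fit with Hill slope.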

[3] = molecular target: T3, human JAK2 (a.a. 828-1132) (Homo sapiens, UniProt O60674); test: In vitro JAK kinase assay (HTRF, phosphorylation of a biotinylated peptide), JAK2
T3 construct: JAK2 (a.a. 828-1132); His tag (N); made in house; host or cells: insect cells (baculovirus)
Procedure, shortened: as §1

TYK2 = TYK2 (Homo sapiens, UniProt P29597); test: TYK2 kinase inhibition (Table A1)
[4] = molecular target: T4, human JAK1 (a.a. 837-1142) (Homo sapiens, UniProt P23458); test: In vitro JAK kinase assay (HTRF, phosphorylation of a biotinylated peptide), JAK1; details: read-out: JAK1 IC50
T4 construct: human JAK1 (a.a. 837-1142); His tag (N); made in house; host or cells: insect cells (baculovirus)
Procedure, shortened: as §1

[5] = method AA1 (3 μM ATP) or AA2 (1000 μM ATP), not stated per value
[6] = compound at 500 nM or 1 mM, 90 μM ATP
[7] = method AA1 (30 μM ATP) or AA2 (1000 μM ATP), not stated per value
[8] = method AA1 (90 μM ATP) or AA2 (1000 μM ATP), not stated per value
[9] = compound at a concentration of 500 nM or 1 mM (not specified), cells shown as percentage

T4 sequence (P23458 849-1154): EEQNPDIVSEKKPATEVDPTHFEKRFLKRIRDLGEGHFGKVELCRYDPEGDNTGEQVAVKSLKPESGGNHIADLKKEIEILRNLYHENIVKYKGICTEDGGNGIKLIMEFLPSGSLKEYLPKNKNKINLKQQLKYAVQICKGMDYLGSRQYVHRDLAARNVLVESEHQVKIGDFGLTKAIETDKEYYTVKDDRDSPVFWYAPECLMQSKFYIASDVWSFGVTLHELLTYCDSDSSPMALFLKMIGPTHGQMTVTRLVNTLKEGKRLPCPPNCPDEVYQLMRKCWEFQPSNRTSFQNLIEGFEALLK
Sequence of TYK2 (P29597 whole entry): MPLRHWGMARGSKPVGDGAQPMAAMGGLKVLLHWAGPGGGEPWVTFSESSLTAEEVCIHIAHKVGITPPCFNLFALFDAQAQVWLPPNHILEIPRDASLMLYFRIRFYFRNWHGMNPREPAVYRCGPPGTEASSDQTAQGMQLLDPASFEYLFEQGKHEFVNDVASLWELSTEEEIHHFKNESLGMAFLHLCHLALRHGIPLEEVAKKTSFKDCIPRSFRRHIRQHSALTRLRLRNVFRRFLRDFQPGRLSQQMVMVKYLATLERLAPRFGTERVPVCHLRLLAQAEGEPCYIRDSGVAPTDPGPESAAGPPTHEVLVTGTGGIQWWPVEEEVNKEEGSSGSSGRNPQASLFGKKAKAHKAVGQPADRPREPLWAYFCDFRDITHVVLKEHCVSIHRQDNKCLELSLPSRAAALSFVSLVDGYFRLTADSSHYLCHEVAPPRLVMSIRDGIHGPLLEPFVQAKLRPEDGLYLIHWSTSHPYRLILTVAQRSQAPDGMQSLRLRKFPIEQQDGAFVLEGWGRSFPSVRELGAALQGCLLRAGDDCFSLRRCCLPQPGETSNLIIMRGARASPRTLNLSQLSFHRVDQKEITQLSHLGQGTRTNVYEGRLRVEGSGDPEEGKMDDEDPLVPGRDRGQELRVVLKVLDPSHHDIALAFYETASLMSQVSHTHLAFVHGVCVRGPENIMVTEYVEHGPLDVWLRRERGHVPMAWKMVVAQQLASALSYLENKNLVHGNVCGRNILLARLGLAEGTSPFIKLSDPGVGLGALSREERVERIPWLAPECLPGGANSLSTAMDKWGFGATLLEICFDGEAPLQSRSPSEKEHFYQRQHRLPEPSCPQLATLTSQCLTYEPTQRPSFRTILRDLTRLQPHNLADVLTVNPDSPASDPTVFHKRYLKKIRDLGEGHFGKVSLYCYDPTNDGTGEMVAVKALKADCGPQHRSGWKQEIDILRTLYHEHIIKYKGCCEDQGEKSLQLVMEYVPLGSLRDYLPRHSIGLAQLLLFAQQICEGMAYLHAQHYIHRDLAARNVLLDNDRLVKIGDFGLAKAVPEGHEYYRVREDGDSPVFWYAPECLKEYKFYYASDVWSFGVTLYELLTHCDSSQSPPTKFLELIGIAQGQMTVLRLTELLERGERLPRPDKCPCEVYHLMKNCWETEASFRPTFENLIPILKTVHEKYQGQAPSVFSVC
T1 sequence (P52333 781-1124): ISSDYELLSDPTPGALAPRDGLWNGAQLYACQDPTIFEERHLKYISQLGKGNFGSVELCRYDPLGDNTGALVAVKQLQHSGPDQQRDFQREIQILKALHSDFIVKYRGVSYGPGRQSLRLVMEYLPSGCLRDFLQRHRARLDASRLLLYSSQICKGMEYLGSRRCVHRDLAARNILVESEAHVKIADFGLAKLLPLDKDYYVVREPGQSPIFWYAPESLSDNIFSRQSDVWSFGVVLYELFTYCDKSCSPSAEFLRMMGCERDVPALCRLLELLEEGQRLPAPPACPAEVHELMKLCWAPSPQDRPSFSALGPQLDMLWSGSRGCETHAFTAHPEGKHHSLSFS
T3 sequence (O60674 828-1132): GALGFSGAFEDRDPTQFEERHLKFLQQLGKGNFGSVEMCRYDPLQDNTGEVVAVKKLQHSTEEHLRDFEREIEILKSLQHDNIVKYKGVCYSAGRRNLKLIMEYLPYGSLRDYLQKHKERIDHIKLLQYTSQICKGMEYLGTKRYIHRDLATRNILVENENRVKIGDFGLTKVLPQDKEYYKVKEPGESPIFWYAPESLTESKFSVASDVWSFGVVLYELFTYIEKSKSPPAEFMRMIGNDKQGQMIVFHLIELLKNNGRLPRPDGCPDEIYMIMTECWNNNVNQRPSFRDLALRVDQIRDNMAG
T2 sequence (Q9UM73 19-1620): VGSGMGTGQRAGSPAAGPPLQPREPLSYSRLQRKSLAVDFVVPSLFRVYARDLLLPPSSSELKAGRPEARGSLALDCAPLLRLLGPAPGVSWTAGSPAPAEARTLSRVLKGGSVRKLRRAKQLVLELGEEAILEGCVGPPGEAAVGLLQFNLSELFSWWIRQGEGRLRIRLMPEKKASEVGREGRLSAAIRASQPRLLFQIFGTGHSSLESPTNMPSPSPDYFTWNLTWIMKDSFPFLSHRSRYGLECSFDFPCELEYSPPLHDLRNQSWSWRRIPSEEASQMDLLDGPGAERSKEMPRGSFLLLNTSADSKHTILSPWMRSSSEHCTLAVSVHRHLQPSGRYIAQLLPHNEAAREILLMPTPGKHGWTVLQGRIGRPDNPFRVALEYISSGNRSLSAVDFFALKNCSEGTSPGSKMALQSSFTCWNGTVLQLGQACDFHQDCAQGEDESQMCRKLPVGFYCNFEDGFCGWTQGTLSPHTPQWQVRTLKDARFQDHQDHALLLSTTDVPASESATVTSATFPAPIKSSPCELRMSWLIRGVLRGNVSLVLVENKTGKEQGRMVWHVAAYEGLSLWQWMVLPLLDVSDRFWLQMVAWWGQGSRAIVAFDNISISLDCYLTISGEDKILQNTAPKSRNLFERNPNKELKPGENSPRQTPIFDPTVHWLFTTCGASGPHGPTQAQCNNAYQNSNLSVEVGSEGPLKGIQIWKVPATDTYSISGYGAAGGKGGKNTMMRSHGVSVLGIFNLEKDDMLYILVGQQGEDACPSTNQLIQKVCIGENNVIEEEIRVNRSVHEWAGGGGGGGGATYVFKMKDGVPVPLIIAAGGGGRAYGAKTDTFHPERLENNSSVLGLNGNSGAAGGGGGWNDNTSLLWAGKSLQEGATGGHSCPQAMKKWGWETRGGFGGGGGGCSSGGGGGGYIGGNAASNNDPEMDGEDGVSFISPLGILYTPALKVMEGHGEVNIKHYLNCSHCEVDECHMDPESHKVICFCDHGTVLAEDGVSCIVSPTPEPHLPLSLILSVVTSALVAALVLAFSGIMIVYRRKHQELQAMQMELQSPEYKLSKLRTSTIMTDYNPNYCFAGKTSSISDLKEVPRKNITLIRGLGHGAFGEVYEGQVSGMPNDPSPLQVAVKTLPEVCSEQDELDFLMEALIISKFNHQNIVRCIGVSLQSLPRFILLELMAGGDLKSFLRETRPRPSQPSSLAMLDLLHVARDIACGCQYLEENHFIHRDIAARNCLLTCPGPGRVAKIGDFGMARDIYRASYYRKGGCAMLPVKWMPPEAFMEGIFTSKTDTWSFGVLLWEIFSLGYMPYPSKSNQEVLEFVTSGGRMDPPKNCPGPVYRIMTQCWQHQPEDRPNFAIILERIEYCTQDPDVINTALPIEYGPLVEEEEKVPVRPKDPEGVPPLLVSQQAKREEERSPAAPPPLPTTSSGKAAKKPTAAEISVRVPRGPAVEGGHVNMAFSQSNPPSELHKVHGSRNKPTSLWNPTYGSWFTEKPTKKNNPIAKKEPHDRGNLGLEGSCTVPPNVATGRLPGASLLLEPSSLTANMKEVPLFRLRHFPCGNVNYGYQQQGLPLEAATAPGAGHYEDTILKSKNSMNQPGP

Row | SMILES | pIC50 [1, 5] | ALK % of inhibition at a concentration of 500 nM or 1 mM [2, 6] [%] | pIC50 [3, 7] | pIC50 (TYK2) | pIC50 [4, 8] | also measured
1 | CCNC(=O)N1CCN(C(=O)COc2ccc3cc2CCc2cccc(c2)Nc2ncc(Cl)c(n2)N3)CC1 [Example A12, trifluoroacetate] | 7.19 | 17 | 7.96 | 7.52 | 8.03 | –
2 | O=C(CN1CCN(c2nc3cccnc3o2)CC1)Nc1ccc2cc1CCc1cncc(c1)Nc1ncc(Cl)c(n1)N2 [Example A118, N-[6-Chloro-2,4,8,18,22-pentaazatetracyclo[14.3.1.1(3,7).1(9,13)]docosa-1(20),3(22),4,6,9(21),10,12,16,18-nonaen-12-yl]-2-(4-[1,3]oxazolo[5,4-b]pyridin-2-ylpiperazin-1-yl)acetamide tris(trifluoroacetate)] | 6.82 | 29 | 7.80 | 7.70 | 9.05 | –
3 | OCc1cc2cc(c1)Nc1nc(ncc1Cl)Nc1cccc(c1)CC2 [Example B24, [6-Chloro-2,4,8,22-tetraazatetracyclo[14.3.1.1(3,7).1(9,13)]docosa-1(20),3(22),4,6,9(21),10,12,16,18-nonaen-11-yl]methanol trifluoroacetate] | – | – | – | – | – | pIC50 ([1]; Table B1): 8.24; pIC50 ([2]; Table B1, cells without percent sign): 6.11; pIC50 ([3]; Table B1): 8.64; pIC50 (TYK2; Table B1): 7.74; pIC50 ([4]; Table B1): 7.85
4 | CCC(=O)N1CCC(CC(=O)Nc2ccc3cc2CCc2cncc(c2)Nc2ncc(Cl)c(n2)N3)CC1 [Example A104, N-[6-Chloro-2,4,8,18,22-pentaazatetracyclo[14.3.1.1(3,7).1(9,13)]docosa-1(20),3(22),4,6,9(21),10,12,16,18-nonaen-12-yl]-2-(1-propionylpiperidin-4-yl)acetamide bis(trifluoroacetate)] | 6.83 | 26 | 8.08 | 8.36 | 7.09 | –
5 | Cc1ccccc1NC(=O)N1CCC(CC(=O)Nc2ccc3cc2CCc2cncc(c2)Nc2ncc(Cl)c(n2)N3)CC1 [Example A149, 4-(2-{[6-Chloro-2,4,8,18,22-pentaazatetracyclo[14.3.1.1(3,7).1(9,13)]docosa-1(20),3(22),4,6,9(21),10,12,16,18-nonaen-12-yl]amino}-2-oxoethyl)-N-(2-methylphenyl)piperidine-1-carboxamide bis(trifluoroacetate)] | < 7.00 | 35 | 8.51 | 8.16 | 9.30 | –
6 | N#Cc1c(N2CCC(CC(=O)Nc3ccc4cc3CCc3cncc(c3)Nc3ncc(Cl)c(n3)N4)CC2)cccc1C(F)(F)F [Example A235, N-[6-Chloro-2,4,8,18,22-pentaazatetracyclo[14.3.1.1(3,7).1(9,13)]docosa-1(20),3(22),4,6,9(21),10,12,16,18-nonaen-12-yl]-2-{1-[2-cyano-3-(trifluoromethyl)phenyl]piperidin-4-yl}acetamide tris(trifluoroacetate)] | < 6.40 | 4.6 | 6.49 | < 6.40 | 7.92 | –
7 | CN(Cc1ccc2cc1CCc1cncc(c1)Nc1ncc(Cl)c(n1)N2)C(=O)C1CCN(c2ncccn2)CC1 [Example B338, N-{[6-Chloro-2,4,8,18,22-pentaazatetracyclo[14.3.1.1(3,7).1(9,13)]docosa-1(20),3(22),4,6,9(21),10,12,16,18-nonaen-12-yl]methyl}-N-methyl-1-pyrimidin-2-ylpiperidine-4-carboxamide tris(trifluoroacetate)] | – | – | – | – | – | pIC50 ([1]; Table B1): < 6.70; ALK % of inhibition at a concentration of 500 nM or 1 mM ([2]; percentage inhibition of the example compound at a concentration of 500 nM or 1 mM (not specified which)): 21%; pIC50 ([3]; Table B1): 6.89; pIC50 (TYK2; Table B1): < 6.70; pIC50 ([4]; Table B1): 7.15
8 | CCC(C)c1ccccc1NC(=O)Nc1ccc2cc1CCc1cccc(c1)Nc1ncc(Cl)c(n1)N2 (stereo not shown) [Example B126, N-(2-sec-Butylphenyl)-N′-[6-chloro-2,4,8,22-tetraazatetracyclo[14.3.1.1(3,7).1(9,13)]docosa-1(20),3(22),4,6,9(21),10,12,16,18-nonaen-12-yl]urea trifluoroacetate] | – | – | – | – | – | pIC50 ([1]; Table B1): 6.79; ALK % of inhibition at a concentration of 500 nM or 1 mM [2, 9]: 6.1%; pIC50 ([3]; Table B1): 7.70; pIC50 (TYK2; Table B1): 7.28; pIC50 ([4]; Table B1): 8.05
9 | COc1cc2cc(c1)Nc1nc(ncc1Cl)Nc1cccc(c1)CC2 [Example A21, 6-Chloro-11-methoxy-2,4,8,22-tetraazatetracyclo[14.3.1.1(3,7).1(9,13)]docosa-1(20),3(22),4,6,9(21),10,12,16,18-nonaene trifluoroacetate] | 7.59 | 65 | 8.21 | 7.01 | 7.24 | –
10 | COc1ccccc1NC(=O)N1CCC(CC(=O)Nc2ccc3cc2CCc2cncc(c2)Nc2ncc(Cl)c(n2)N3)CC1 [Example A152, 4-(2-{[6-Chloro-2,4,8,18,22-pentaazatetracyclo[14.3.1.1(3,7).1(9,13)]docosa-1(20),3(22),4,6,9(21),10,12,16,18-nonaen-12-yl]amino}-2-oxoethyl)-N-(2-methoxyphenyl)piperidine-1-carboxamide bis(trifluoroacetate)] | < 7.00 | 37 | 8.62 | 8.62 | 9.40 | –
11 | Cc1cc(C)c(C#N)c(N2CCC(CC(=O)Nc3ccc4cc3CCc3cncc(c3)Nc3ncc(Cl)c(n3)N4)CC2)n1 [Example A239, N-[6-Chloro-2,4,8,18,22-pentaazatetracyclo[14.3.1.1(3,7).1(9,13)]docosa-1(20),3(22),4,6,9(21),10,12,16,18-nonaen-12-yl]-2-[1-(3-cyano-4,6-dimethylpyridin-2-yl)piperidin-4-yl]acetamide tris(trifluoroacetate)] | < 6.40 | 17 | 6.65 | < 6.40 | 7.80 | –
12 | O=C(Nc1cc2cc(c1)OCCSc1cccc(c1)Nc1nc(ncc1Cl)N2)c1ccno1 [Example D59, N-[6-Chloro-17-oxa-14-thia-2,4,8,24-tetraazatetracyclo[16.3.1.1(3,7).1(9,13)]tetracosa-1(22),3(24),4,6,9(23),10,12,18,20-nonaen-20-yl]isoxazole-5-carboxamide trifluoroacetate] | – | – | – | – | – | pIC50 ([1]; Table D1): 8.15; pIC50 ([2]; Table D1, 90 μM ATP): 6.70; pIC50 ([3]; Table D1): 9.22; pIC50 (TYK2; Table D1): 8.68; pIC50 ([4]; Table D1): 8.64
13 | O=C(Nc1ccc2cc1CCc1cccc(c1)Nc1ncc(Cl)c(n1)N2)[C@@H]1CCCN1 [Example A110, (2S)—N-[6-Chloro-2,4,8,22-tetraazatetracyclo[14.3.1.1(3,7).1(9,13)]docosa-1(20),3(22),4,6,9(21),10,12,16,18-nonaen-12-yl]pyrrolidine-2-carboxamide bis(trifluoroacetate)] | 7.85 | 45 | 7.59 | 7.82 | 7.49 | –
14 | O=C(Nc1ccc2cc1CCc1cncc(c1)Nc1ncc(Cl)c(n1)N2)N[C@H]1CCN(C(=O)c2ccn[nH]2)C1 [Example B268, N-[6-Chloro-2,4,8,18,22-pentaazatetracyclo[14.3.1.1(3,7).1(9,13)]docosa-1(20),3(22),4,6,9(21),10,12,16,18-nonaen-12-yl]-N′-[(3S)-1-(1H-pyrazol-5-ylcarbonyl)pyrrolidin-3-yl]urea bis(trifluoroacetate)] | – | – | – | – | – | pIC50 ([1]; Table B1): < 5.00; ALK % of inhibition at a concentration of 500 nM or 1 mM [2, 9]: 16%; pIC50 ([3]; Table B1): 6.56; pIC50 (TYK2; Table B1): 6.27; pIC50 ([4]; Table B1): 8.01
